How the values were obtained:
[1] = tested on: Rat Liver ER Neutral α-Glucosidase; assay: Endoplasmic reticulum α-glucosidase activity assay; type: biochemical
From the text: Betulinic acid inhibits yeast α-glucosidase activity and interferes with N-linked glycan modifications to cell-surface intercellular adhesion molecule-1 (ICAM-1) in human lung carcinoma A549 cells in a similar manner to castanospermine, an inhibitor of endoplasmic reticulum α-glucosidases I and II [66]. […] Taken together, these considerations prompted us to evaluate a series of lupanes with amide function or polyamine chain 11, 12, 16, 18, and 22–26 for α-glucosidase inhibition. Initially, they were screened against α-glucosidase of S. cerevisiae as an accessible and high-throughput model. Confirmatory experiments were performed on isolated rough endoplasmic reticulum vesicles from rat liver, which contain neutral α-glucosidases I and II in a membrane-bound form.
Endoplasmic reticulum was isolated from hepatocytes of decapitated male Sprague-Dawley rats, which were starved overnight and sacrificed the next morning. All experiments were approved by Volgograd regional ethic committee. The whole procedure was performed at 4 °C. In brief, a fresh tissue sample from an animal was washed twice with 10 mL of PBS to remove residual blood. The tissue was placed on a paper towel in order to absorb excess liquid and blood clots, if present. It was cut further into small pieces (1.5–2 cm) and washed once more. […] Homogenate was centrifuged at 1000× g for 10 min at 4 °C. After removal of the floating lipid layer by aspiration, supernatant was separated and centrifuged at 12,000× g for 15 min. at 4 °C. The supernatant fraction, which is the post mitochondrial fraction (PMF), was used for isolation of rough endoplasmic reticulum (RER) enriched microsomes by precipitation with 8 mM CaCl2 added dropwise. The final concentration of CaCl2 was 7 mM. Resulting sample was centrifuged at 8000 g for 10 min. at 4 °C. The supernatant was discarded, and the pellet was suspended in isotonic extraction buffer (0.3 mL of buffer for each g of original tissue). The suspension was homogenized completely to afford RER enriched microsomes. In a 96-well flat transparent plate 25 µL of the isolated RER microsomes were incubated with 50 µL of test compounds in 67 mM PBS (pH 6.8) at 37 °C for 10 min. Then, p-nitrophenyl-α-D-glucopyranoside (Sigma #N1377, St. Louis, MO, USA) was added to 1 mM final concentration and increase in absorbance was recorded for 42 min at 405 nm wavelength with Infinite M200 PRO microplate reader (Tecan, Austria). Concentration of RER microsomes was adjusted to achieve an increase in optical density of ~0.2 in control samples after 30 min. of incubation. Test compounds were prepared as described above for the yeast α-glucosidase assay.

[2] = tested on: OVCAR-3; parameters: method as in PMID 25405285; settings: standard drugs used by NCI as control; cited from earlier work
[3] = tested on: U251; parameters: method as in PMID 25405285; settings: standard drugs used by NCI as control; cited from earlier work
[4] = tested on: NCI-H226; parameters: method as in PMID 25405285; settings: standard drugs used by NCI as control; cited from earlier work
[5] = tested on: LOX IMVI; parameters: method as in PMID 25405285; settings: standard drugs used by NCI as control; cited from earlier work
[6] = tested on: KM12; parameters: method as in PMID 25405285; settings: standard drugs used by NCI as control; cited from earlier work
[7] = tested on: OVCAR-5; parameters: method as in PMID 25405285; settings: standard drugs used by NCI as control; cited from earlier work
[8] = tested on: BT-549; parameters: method as in PMID 25405285; settings: standard drugs used by NCI as control; cited from earlier work
[9] = tested on: CCRF-CEM; parameters: method as in PMID 25405285; settings: standard drugs used by NCI as control; cited from earlier work
[10] = tested on: A549/ATCC; parameters: method as in PMID 25405285; settings: standard drugs used by NCI as control; cited from earlier work
[11] = tested on: RPMI-8226; parameters: method as in PMID 25405285; settings: standard drugs used by NCI as control; cited from earlier work
[12] = tested on: RXF 393; parameters: method as in PMID 25405285; settings: standard drugs used by NCI as control; cited from earlier work
[13] = tested on: COLO 205; parameters: method as in PMID 25405285; settings: standard drugs used by NCI as control; cited from earlier work
[14] = tested on: SK-MEL-28; parameters: method as in PMID 25405285; settings: standard drugs used by NCI as control; cited from earlier work
[15] = tested on: HCC-2998; parameters: method as in PMID 25405285; settings: standard drugs used by NCI as control; cited from earlier work
[16] = tested on: SF-539; parameters: method as in PMID 25405285; settings: standard drugs used by NCI as control; cited from earlier work
[17] = tested on: T-47D; parameters: method as in PMID 25405285; settings: standard drugs used by NCI as control; cited from earlier work
[18] = tested on: NCI-H460; parameters: method as in PMID 25405285; settings: standard drugs used by NCI as control; cited from earlier work
[19] = tested on: SNB-75; parameters: method as in PMID 25405285; settings: standard drugs used by NCI as control; cited from earlier work
[20] = tested on: NCI-H522; parameters: method as in PMID 25405285; settings: standard drugs used by NCI as control; cited from earlier work
[21] = tested on: MDA-MB-468; parameters: method as in PMID 25405285; settings: standard drugs used by NCI as control; cited from earlier work
[22] = tested on: MOLT-4; parameters: method as in PMID 25405285; settings: standard drugs used by NCI as control; cited from earlier work
[23] = tested on: OVCAR-4; parameters: method as in PMID 25405285; settings: standard drugs used by NCI as control; cited from earlier work
[24] = tested on: SR; parameters: method as in PMID 25405285; settings: standard drugs used by NCI as control; cited from earlier work
[25] = tested on: HOP-62; parameters: method as in PMID 25405285; settings: standard drugs used by NCI as control; cited from earlier work

In the case of C=C(C)[C@@H]1CC[C@]2(C(=O)NCCNCCNCCN)CC[C@]3(C)[C@H](CC[C@@H]4[C@@]5(C)CCC(=O)C(C)(C)[C@@H]5CC[C@]43C)[C@@H]12 [Compound 11], the “Rat Liver ER Neutral α-Glucosidase Inhibition, m ± SD” value ([1]; 10 μM) is reported as 15.03 ± 8.98% and the “Rat Liver ER Neutral α-Glucosidase Inhibition, m ± SD” value ([1]; 100 μM) is reported as 43.60 ± 7.98 %.

For COc1cccc2c1C(=O)c1c(O)c3c(c(O)c1C2=O)C[C@@](O)(C(=O)CO)C[C@@H]3O[C@H]1C[C@H](N)[C@H](O)[C@H](C)O1 [DRB, doxorubicin], the GI50 [2] is given as 390 nM, the GI50 [3] is given as 40 nM and the GI50 [4] is given as 50 nM. The GI50 [5] was 70 nM, the GI50 [6] was 270 nM and the GI50 [7] was 410 nM. For the same compound, the GI50 [8] was 230 nM, the GI50 [9] was 80 nM and the GI50 [10] was 60 nM. The GI50 [11] was 80 nM, the GI50 [12] was 100 nM and the GI50 [13] was 180 nM. For the same compound, the GI50 [14] was 210 nM, the GI50 [15] was 260 nM and the GI50 [16] was 120 nM. The GI50 [17] was 60 nM, the GI50 [18] was 20 nM and the GI50 [19] was 70 nM. For the same compound, the GI50 [20] was 30 nM, the GI50 [21] was 50 nM and the GI50 [22] was 30 nM. The GI50 [23] was 370 nM, the GI50 [24] was 30 nM and the GI50 [25] was 70 nM.
